Results from patent US6352834B1, “Prostate cancer assays and related methods” (University of Iowa Research Foundation, priority 1998, dated 2002).

Experiments:
LNCaP cells [1] = experiment: Thymidine (3H) incorporation, LNCaP cells in 96-well plates; type: cell-based; details: Homo sapiens, read-out: % Inhibition 3H
Experimental: (§1) Comment: Table 2 is data from one of three similar experiments in which cells were cultured for 72 hours following the methods described in the proposal (i.e., cells in 6-well plates for PSA studies and cells in 96-well plates for thymidine incorporation, both at the same cell concentration). […] For viable cells, the per cell production of PSA rose 33.6% (column 8: PSA value of 1.5×10E7 molecules per cell divided by control value of 1.13×10E7).

LNCaP cells [2] = experiment: PSA assay on tissue culture supernatants of LNCaP cells cultured with iron chelator; type: cell-based; details: for Molecules PSA Per Viable Cell / Total PSA / Molecules PSA Per Cell: 72 Hrs; for Total PSA: from 3.0 ml supernatant per well; for Molecules PSA Per Cell: total cells recovered
Experimental: as §1, with “1.13×10E7). […]” for “1.13×10E7).”

[3] = Cell counts and viability of LNCaP cells after culture with iron chelator; type: cell-based; details: human, LNCaP cells
Experimental: as §1, with “1.13×10E7). […]” for “1.13×10E7).”

LNCaP cells [4] = experiment: as above; type: cell-based; details: 72 Hrs
Experimental: as §1, with “1.13×10E7). […]” for “1.13×10E7).”

transferrin receptor = transferrin receptor (Homo sapiens, UniProt P02786); details: Forsbeck et al.; cited from earlier work
transferrin receptor, sequence (P02786 whole entry): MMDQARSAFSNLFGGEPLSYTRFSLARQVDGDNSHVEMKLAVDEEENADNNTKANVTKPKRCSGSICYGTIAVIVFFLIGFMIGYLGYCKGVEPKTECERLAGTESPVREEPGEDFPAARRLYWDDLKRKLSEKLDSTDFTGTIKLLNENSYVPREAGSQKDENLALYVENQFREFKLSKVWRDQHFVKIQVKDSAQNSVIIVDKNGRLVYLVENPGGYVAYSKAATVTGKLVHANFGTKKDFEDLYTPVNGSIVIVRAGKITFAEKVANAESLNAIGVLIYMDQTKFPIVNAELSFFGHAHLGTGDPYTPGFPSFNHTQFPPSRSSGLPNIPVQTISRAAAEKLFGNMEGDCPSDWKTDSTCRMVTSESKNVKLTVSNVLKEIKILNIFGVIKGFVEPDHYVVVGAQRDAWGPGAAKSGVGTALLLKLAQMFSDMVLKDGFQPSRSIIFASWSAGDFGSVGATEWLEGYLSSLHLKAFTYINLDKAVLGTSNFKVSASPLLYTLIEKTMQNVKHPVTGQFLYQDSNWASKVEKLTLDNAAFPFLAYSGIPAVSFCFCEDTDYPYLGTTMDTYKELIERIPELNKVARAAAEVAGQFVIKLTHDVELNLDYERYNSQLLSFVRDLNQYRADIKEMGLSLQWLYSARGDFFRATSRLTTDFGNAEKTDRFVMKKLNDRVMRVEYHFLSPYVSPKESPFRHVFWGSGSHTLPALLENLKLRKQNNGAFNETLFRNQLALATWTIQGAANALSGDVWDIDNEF

CC(=O)N(O)CCCCCNC(=O)CCC(=O)N(O)CCCCCNC(=O)CCC(=O)N(O)CCCCCN [Desferal, Deferoxamine]
inhibition at 0.1 µg/mL (LNCaP cells [1]): 1.8% | inhibition at 0.25 µg/mL (LNCaP cells [1]): 6.8% | inhibition at 0.5 µg/mL (LNCaP cells [1]): 7.4% | inhibition at 1 µg/mL (LNCaP cells [1]): 10.6% | inhibition at 2 µg/mL (LNCaP cells [1]): 21.1% | inhibition at 2.5 µg/mL (LNCaP cells [1]): 26.8% | inhibition at 3 µg/mL (LNCaP cells [1]): 40.3% | inhibition at 4 µg/mL (LNCaP cells [1]): 52.7% | rise in production of PSA per viable cell versus control (LNCaP cells [2]; DFO 2.5 micrograms/ml, 72 hours): 33.6% | Molecules PSA Per Viable Cell (LNCaP cells [2]; Desferal 0.1 ug/ml): 1.28 × 10^7 | Total PSA (LNCaP cells [2]; Desferal 0.1 ug/ml): 710 ng | Molecules PSA Per Cell (LNCaP cells [2]; Desferal 0.1 ug/ml): 1.20 × 10^7 | Molecules PSA Per Viable Cell (LNCaP cells [2]; Desferal 0.25 ug/ml): 1.30 × 10^7 | Total PSA (LNCaP cells [2]; Desferal 0.25 ug/ml): 710 ng | Molecules PSA Per Cell (LNCaP cells [2]; Desferal 0.25 ug/ml): 1.22 × 10^7 | Molecules PSA Per Viable Cell (LNCaP cells [2]; Desferal 0.50 ug/ml): 1.14 × 10^7 | Total PSA (LNCaP cells [2]; Desferal 0.50 ug/ml): 650 ng | Molecules PSA Per Cell (LNCaP cells [2]; Desferal 0.50 ug/ml): 1.06 × 10^7 | Molecules PSA Per Viable Cell (LNCaP cells [2]; Desferal 1.0 ug/ml): 1.12 × 10^7 | Total PSA (LNCaP cells [2]; Desferal 1.0 ug/ml): 644 ng | Molecules PSA Per Cell (LNCaP cells [2]; Desferal 1.0 ug/ml): 1.04 × 10^7 | Molecules PSA Per Viable Cell (LNCaP cells [2]; Desferal 2.0 ug/ml): 1.41 × 10^7 | Total PSA (LNCaP cells [2]; Desferal 2.0 ug/ml): 642 ng | Molecules PSA Per Cell (LNCaP cells [2]; Desferal 2.0 ug/ml): 1.32 × 10^7 | Molecules PSA Per Viable Cell (LNCaP cells [2]; Desferal 2.5 ug/ml): 1.51 × 10^7 | Total PSA (LNCaP cells [2]; Desferal 2.5 ug/ml): 627 ng | Molecules PSA Per Cell (LNCaP cells [2]; Desferal 2.5 ug/ml): 1.42 × 10^7 | Molecules PSA Per Viable Cell (LNCaP cells [2]; Desferal 3.0 ug/ml): 1.59 × 10^7 | Total PSA (LNCaP cells [2]; Desferal 3.0 ug/ml): 587 ng | Molecules PSA Per Cell (LNCaP cells [2]; Desferal 3.0 ug/ml): 1.45 × 10^7 | Molecules PSA Per Viable Cell (LNCaP cells [2]; Desferal 4.0 ug/ml): 1.80 × 10^7 | Total PSA (LNCaP cells [2]; Desferal 4.0 ug/ml): 611 ng | Molecules PSA Per Cell (LNCaP cells [2]; Desferal 4.0 ug/ml): 1.54 × 10^7 | viability at 72 h, 0.1 ug/ml ([3]; Desferal 0.1 ug/ml): 93% | viability at 72 h, 0.25 ug/ml ([3]; Desferal 0.25 ug/ml): 93.8% | viability at 72 h, 0.5 ug/ml ([3]; Desferal 0.50 ug/ml): 93.4% | viability at 72 h, 1 ug/ml ([3]; Desferal 1.0 ug/ml): 92.2% | viability at 72 h, 2 ug/ml ([3]; Desferal 2.0 ug/ml): 98.3% | viability at 72 h, 2.5 ug/ml ([3]; Desferal 2.5 ug/ml): 94.3% | viability at 72 h, 3 ug/ml ([3]; Desferal 3.0 ug/ml): 90.9% | viability at 72 h, 4 ug/ml ([3]; Desferal 4.0 ug/ml): 85.4% | Total Cells (LNCaP cells [4]; Desferal 0.1 ug/ml): 1.09 × 10^6 | Total Viable Cells (LNCaP cells [4]; Desferal 0.1 ug/ml): 1.01 × 10^6 | Total Cells (LNCaP cells [4]; Desferal 0.25 ug/ml): 1.07 × 10^6 | Total Viable Cells (LNCaP cells [4]; Desferal 0.25 ug/ml): 1.00 × 10^6 | Total Cells (LNCaP cells [4]; Desferal 0.50 ug/ml): 1.13 × 10^6 | Total Viable Cells (LNCaP cells [4]; Desferal 0.50 ug/ml): 1.06 × 10^6 | Total Cells (LNCaP cells [4]; Desferal 1.0 ug/ml): 1.14 × 10^6 | Total Viable Cells (LNCaP cells [4]; Desferal 1.0 ug/ml): 1.05 × 10^6 | Total Cells (LNCaP cells [4]; Desferal 2.0 ug/ml): .900 × 10^6 | Total Viable Cells (LNCaP cells [4]; Desferal 2.0 ug/ml): 840 × 10^6 | Total Cells (LNCaP cells [4]; Desferal 2.5 ug/ml): .810 × 10^6 | Total Viable Cells (LNCaP cells [4]; Desferal 2.5 ug/ml): .760 × 10^6 | Total Cells (LNCaP cells [4]; Desferal 3.0 ug/ml): .744 × 10^6 | Total Viable Cells (LNCaP cells [4]; Desferal 3.0 ug/ml): .680 × 10^6 | Total Cells (LNCaP cells [4]; Desferal 4.0 ug/ml): .730 × 10^6 | Total Viable Cells (LNCaP cells [4]; Desferal 4.0 ug/ml): .620 × 10^6

Cc1ccc(C(=O)Nc2ccc(S(=O)(=O)O)c3cc(S(=O)(=O)O)cc(S(=O)(=O)O)c23)cc1NC(=O)c1cccc(NC(=O)Nc2cccc(C(=O)Nc3cc(C(=O)Nc4ccc(S(=O)(=O)O)c5cc(S(=O)(=O)O)cc(S(=O)(=O)O)c45)ccc3C)c2)c1 [suramin]
binding of transferrin to its receptor (transferrin receptor): partially inhibit
